Patent publication US20250161238A1, “NMDAR Antagonists Prevent Ageing and Aging-Associated Conditions and Diseases Through Increasing 20S Proteasome Activity” (priority 2022, published 2025)
Where a name gives a salt, the structure may show the parent alone. Read-outs that look alike come from different tables or passages of the source. Peptide text beside a SMILES is read from it. * marks the point of attachment. Cbz = O=C(OCc1ccccc1)*

Assays:
Ub-YFP = Ub-YFP degredation in Hep3B cells; format: cell-based, human
Experimental: This finding was supported by the following experiments; First, a model was developed to find inhibitor or inhibitors for the ubiquitin dependent degredation in the Hep3B cell line. For this purpose Hep3B cell expressing Ub-YFP genome were prepared. Ub-YFP is a system which was used to detect the ubiquitin dependent proteasome activity (26S). It is also known that Ub-YFP is not affected by the ubiquitin-independent protesome system. In further experiments, we tested molecules which are involved in different parts of the ubiquitination processes including PYR41 (Ubiquitin-activating enzyme (E1) inhibitor), NCC697923 (UBE2N E2 ubiquitin-conjugating enzyme inhibitor), SMER3 (ubiquitin ligase E3 inhibitor), SZL-P1-411 (Skp2 E3 ligase inhibitor), SKPIN C1 (Skp2 E3 ligase inhibitor), P005091 (USP7 inhibitor), Vialin A (USP4 and USP5 inhibitor), Spautin A (USP10 and USP13 inhibitor), ML 323 (USP1-UAF1 inhibitor), IU1 (USP14 inhibitor), and Mg132 (protesome inhibitor) for the inhibition of Ub-YFP degredation. […] MG132 was used as the inhibitor of the protesome activity (FIG. 12A). In the next experiment YFP protein amount was investigated in the presence of ketamin, Pyr41, and ketamin and Pyr41 together by western blot in Hep3B cell.
The Ub-R-YFP open-reading frame was obtained from Ub-R-YFP was a gift from Nico Dantuma (Addgene plasmid #11948). Ub-R-YFP sequence was obtained from the original vector by cutting the plasmid with NheI and NotI enzymes (Thermo Scientific), blunt ended and was cloned into pBSK-clo2D which is cut by EcoRV restriction enzyme (SibEnzyme, E059). Ub-R-YFP was obtained from the pBSK-clo2D vector by cutting with BamHI. pLV-EF1a-IRES-Puro (85132-Addgene) vector was cut by BamHI restriction enzyme and dephospharylated and ligated with Ub-R-YFP. After the orientation construct was determined, pLV-EF1a-IRES-Puro-Ub-R-YFP was reproduced in large volumes using DH5a E. Coli.
Hek293T cells were transfected with the pLV-EF1a-IRES-Puro-Ub-R-YFP and helper vectors psPAX2 and pMD2.G using Calcium Phosphate Mammalian Transfection Kit (631312-Takara bio). After 48 h supernatants containing Ub-R-YFP lentivirus were collected and target cells were infected under the presence of […] polybrene. After 24 hours, the media of the cells were replaced with media containing […] puromycin for 6 days. Then living cells were combined in a pool. Infected clones were maintained in the presence of 250 ng/ml puromycin.

p21-GFP fusion protein = p21-GFP fusion protein amount in cells; format: cell-based, human
proteasome [1] = molecular target: T1, proteasome (Homo sapiens, UniProt P28072+P28074+Q99436); test: In-Cell Fluorogenic Proteasome Assay, HepG2; format: cell-based; parameters: endogenous in cells; host or cells: HepG2 (A9), T98G (A10), digitonin/Tween-permeabilised whole cells; conditions: for trypsin, chemotrypsin and caspase-like proteasome activities: whole HepG2 cell
T1 sequence (P28074 60-263): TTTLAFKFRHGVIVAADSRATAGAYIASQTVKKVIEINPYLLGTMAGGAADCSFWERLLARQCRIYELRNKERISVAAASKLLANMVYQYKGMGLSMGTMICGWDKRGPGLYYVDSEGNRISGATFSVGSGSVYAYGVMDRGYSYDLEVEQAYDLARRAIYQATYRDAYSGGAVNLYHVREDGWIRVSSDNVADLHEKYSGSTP
T1 sequence (Q99436 44-277): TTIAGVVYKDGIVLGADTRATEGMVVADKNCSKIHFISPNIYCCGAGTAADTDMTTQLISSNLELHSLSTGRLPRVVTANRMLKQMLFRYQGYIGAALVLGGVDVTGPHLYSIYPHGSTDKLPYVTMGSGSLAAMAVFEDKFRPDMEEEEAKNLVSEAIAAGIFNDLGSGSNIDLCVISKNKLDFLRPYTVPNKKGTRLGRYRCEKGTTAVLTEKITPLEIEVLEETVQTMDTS
T1 sequence (P28072 1-239): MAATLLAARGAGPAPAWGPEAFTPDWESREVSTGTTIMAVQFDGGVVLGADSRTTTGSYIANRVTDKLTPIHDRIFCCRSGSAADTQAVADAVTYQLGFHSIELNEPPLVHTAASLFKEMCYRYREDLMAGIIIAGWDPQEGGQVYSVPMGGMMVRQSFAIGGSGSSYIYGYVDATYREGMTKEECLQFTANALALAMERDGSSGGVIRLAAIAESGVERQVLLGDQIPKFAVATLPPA
Experimental: (§1) For a 96-well plate format, 8×10^3 cells per well were seeded. 24 hours later medium was changed with NMDAR blocker containing medium. Two hours later 100 μl of 2× flourescence cell buffer: (1 ml 1M tris hcl ph: 7.5, 500 μl 1M KCL, 200 μl […], 200 μl 0.1M MgCL2, 50 μl % 0.2 tween 20, 75 μl digitonin 20 mg/ml in DMSO ChemCruz cat no: sc-280675, 10 μl flourescence substrates including Suc-LLVY-AMC, Z-LLE-AMC, and Ac-RLR-AMC Ac-RLR-AMC, 8.1 ml H2O). After incubation at room temperature for a 5 minutes the flourescence of each sample were measured in a flourescence spectrometer (Biotek instrument-Synergy HT).

mice with GD symptoms = conditions: A/J, C3H/HeJ, DBA/2J, C57BL6/JolaHsd, CBE 25 mg/kg day, cited from earlier work
proteasome [2] = molecular target: T1, proteasome; test: In-Cell Fluorogenic Proteasome Assay, T98G; format: cell-based; parameters: endogenous in cells; host or cells: T98G (A10), digitonin/Tween-permeabilised whole cells; conditions: whole T98G cell
Experimental: as §1

With CCOC(=O)c1ccc(N2NC(=O)/C(=C/c3ccc([N+](=O)[O-])o3)C2=O)cc1 [PYR41] the Ub-YFP degredation (Ub-YFP; Hep3B expressing Ub-YFP) was “inhibits”, the YFP protein amount (Ub-YFP; Hep3B, western blot) was “increase” and the “p21-GFP fusion protein / GFP amount” value (p21-GFP fusion protein) was “increase”.

With Cc1cc(C(=O)CN2CCCC2)c(C)n1-c1ccc(F)cc1 [IU1] the “trypsin, chemotrypsin and caspase-like proteasome activities” value (proteasome [1]) was “increases”.

With OO [H2O2] the “GFP signal of p21-GFP” value (p21-GFP fusion protein) was “increased the GFP signal dramatically”.

In the case of CN1C(=O)[C@]23CC4=CC=C[C@H](O)[C@H]4N2C(=O)[C@@]1(CO)SS3 [Gliotoxin], the “chemotrypsin activity of proteasome at low dose of Gliotoxin” value (proteasome [1]; 5 uM, compared to control) is reported as “not statistically changed” and the “chemotrypsin activity of proteasome at high dose of gliotoxin” value (proteasome [1]; 25 uM, in the presence of NMDR blockers) is reported as “inhibited”.

With CC(C)C[C@@H](C=O)NC(=O)[C@H](CC(C)C)NC(=O)[C@H](CC(C)C)NC(=O)OCc1ccccc1 [Mg132] (Cbz-Leu-Leu-Leu-aldehyde) the “trypsin activity of proteasome” value (proteasome [1]; whole cell, HepG2, T98G and Hep3B) was “did not inhibit” and the “chemotrypsin activity of proteasome” value (proteasome [1]; whole cell, substance alone) was “inhibits”.

In the case of C[C@]12N[C@H](Cc3ccccc31)c1ccccc12 [MK801, (5S,10R)-(+)-5-Methyl-10,11-dihydro-5H dibenzo [a,d]cyclobepten-5,10-imine maleate], the “life span of mice with Gaucher disease symptoms” value (mice with GD symptoms) is listed as “dramatically extended”, the “life span of mice with Gaucher disease symptoms” value (mice with GD symptoms; listed as MK-801) is listed as “increase” and the “trypsin, chemotrypsin and caspase-like proteasome activities” value (proteasome [2]) is listed as “increased”. The “trypsin, chemotrypsin and caspase-like proteasome activities” value (proteasome [1]) was “increased”.
